Several values for one entry are separate records, joined by “and”; a condition that tells them apart may be missing. Equal values may be shown once.
Test system: RPMI-8226 cells
Assay: Gene expression profiling, NanoString nCounter PanCancer Pathways Panel, ROSALIND analysis
Format: cell-based, human
Description: RPMI-8226 cells were treated with vehicle or TCH-165 (10 μM) for 4 h. Total RNA was obtained using the mirVana miRNA Isolation Kit, with phenol (Thermofisher Scientific; AM1560; Waltham, MA, USA). Total RNA was quantified by Qubit (Thermofisher Scientific; Q32855; Waltham, MA, USA). and gene expression was evaluated against the nCounter® PanCancer Pathways Panel^TM according to the standard NanoString protocol.
Data were analyzed by ROSALIND® [36] with a hyperscale architecture developed by ROSALIND, Inc. (San Diego, CA, USA). Normalization, fold changes and p-values were calculated using criteria provided by NanoString. ROSALIND follows the nCounter® Advanced Analysis protocol of dividing counts within a lane by the geometric mean of the normalizer probes from the same lane. Housekeeping probes to be used for normalization are selected based on the geNorm algorithm, as implemented in the NormqPCR R library. Fold changes and p-values are calculated using the fast method as described in the nCounter Advanced Analysis 2.0 User Manual. The p-value adjustment is performed using the Benjamini–Hochberg method of estimating false discovery rates (FDR). Clustering of genes for the final heatmap of differentially expressed genes was done using the PAM (Partitioning Around Medoids) method using the fpc R library. Hypergeometric distribution was used to analyze the enrichment of pathways, gene ontology, domain structure and other ontologies. The topGO R library was used to determine local similarities and dependencies between GO terms in order to perform Elim pruning correction. Several database sources were referenced for enrichment analysis, including Interpro [40], NCBI [41], MSigDB [42, 43], REACTOME [44], WikiPathways. Enrichment was calculated relative to a set of background genes relevant to the experiment.

[1] = RPMI-8226 cells, TCH-165 treatment samples 1-3

CCOC(=O)[C@]1(c2ccccc2)N=C(c2ccc(OC)cc2)N(Cc2ccccc2)[C@@H]1c1ccc(NCc2ccccc2)cc1 [TCH-165]
VEGFC normalized gene expression (RPMI-8226, TCH-165 samples 1-3): 4.571 and 4.699 and 4.731
VHL normalized gene expression (RPMI-8226, TCH-165 samples 1-3): 9.098 and 9.164 and 9.268
WEE1 normalized gene expression (RPMI-8226, TCH-165 samples 1-3): 9.934 and 9.744 and 9.778
WHSC1L1 normalized gene expression (RPMI-8226, TCH-165 samples 1-3): 9.091 and 9.1675 and 9.063
WHSC1 normalized gene expression (RPMI-8226, TCH-165 samples 1-3): 9.949 and 9.835 and 9.719
WIF1 normalized gene expression (RPMI-8226, TCH-165 samples 1-3): 5.758 and 4.855 and 4.805
WNT2B normalized gene expression (RPMI-8226, TCH-165 samples 1-3): 5.308 and 4.427 and 4.528
WNT2 normalized gene expression (RPMI-8226, TCH-165 samples 1-3): 5.827 and 5.242 and 5.592
WNT3 normalized gene expression (RPMI-8226, TCH-165 samples 1-3): 5.044 and 4.7789 and 4.9095
WNT4 normalized gene expression (RPMI-8226, TCH-165 samples 1-3): 4.488 and 3.817 and 3.5707
WNT5A normalized gene expression (RPMI-8226, TCH-165 samples 1-3): 6.308 and 6.154 and 6.184
WNT6 normalized gene expression (RPMI-8226, TCH-165 samples 1-3): 4.924 and 4.739 and 4.437
WNT7A normalized gene expression (RPMI-8226, TCH-165 samples 1-3): 5.208 and 4.962 and 4.9095
WNT7B normalized gene expression (RPMI-8226, TCH-165 samples 1-3): 3.723 and 3.27 and 3.805
WNT10B normalized gene expression (RPMI-8226, TCH-165 samples 1-3): 5.259 and 5.27 and 5.211
WNT11 normalized gene expression (RPMI-8226, TCH-165 samples 1-3): 4.308 and 4.154 and 3.876
WNT16 normalized gene expression (RPMI-8226, TCH-165 samples 1-3): 4.986 and 4.27 and 4.693
WT1 normalized gene expression (RPMI-8226, TCH-165 samples 1-3): 4.571 and 4.476 and 4.341
XPA normalized gene expression (RPMI-8226, TCH-165 samples 1-3): 8.195 and 7.97 and 8.109
XRCC4 normalized gene expression (RPMI-8226, TCH-165 samples 1-3): 8.283 and 8.506 and 8.426
ZAK normalized gene expression (RPMI-8226, TCH-165 samples 1-3): 4.793 and 4.2133 and 4.238
ZBTB16 normalized gene expression (RPMI-8226, TCH-165 samples 1-3): 2.986 and 2.891 and 3.0682
ZBTB32 normalized gene expression (RPMI-8226, TCH-165 samples 1-3): 4.101 and 4.093 and 3.731
ZIC2 normalized gene expression (RPMI-8226, TCH-165 samples 1-3): 4.86 and 4.154 and 4.291
Normalized gene expression, ACVR1C [1]: 4.723 and 4.614 and 4.693
Normalized gene expression, ALKBH2 [1]: 6.955 and 6.808 and 6.991
Normalized gene expression, ALKBH3 [1]: 8.467 and 8.37 and 8.417
Normalized gene expression, AMER1 [1]: 6.704 and 6.569 and 6.56
Normalized gene expression, APH1B [1]: 6.101 and 5.7789 and 5.991
Normalized gene expression, ARID1B [1]: 9.42 and 9.304 and 9.241
Normalized gene expression, ARID2 [1]: 9.514 and 9.28 and 9.287
Normalized gene expression, ASXL1 [1]: 9.934 and 9.758 and 9.627
Normalized gene expression, BIRC7 [1]: 4.401 and 4.2133 and 4.0682
Normalized gene expression, BMP8A [1]: 6.156 and 5.759 and 5.787
Normalized gene expression, BRIP1 [1]: 8.576 and 8.341 and 8.466
Normalized gene expression, CACNA2D3 [1]: 2.986 and 2.154 and 2.483
Normalized gene expression, CACNA2D4 [1]: 4.793 and 4.739 and 4.291
Normalized gene expression, CACNG6 [1]: 5.101 and 4.093 and 4.653
Normalized gene expression, CALML6 [1]: 4.986 and 4.996 and 5.038
Normalized gene expression, CARD11 [1]: 6.55 and 6.729 and 6.472
Normalized gene expression, CASP12 [1]: 5.208 and 4.891 and 4.653
Normalized gene expression, CCNB3 [1]: 2.401 and 3.3768 and 3.184
Normalized gene expression, COL6A6 [1]: 3.986 and 4.324 and 4.184
Normalized gene expression, COL24A1 [1]: 5.488 and 5.2133 and 5.316
Normalized gene expression, COL27A1 [1]: 4.986 and 5.154 and 5.098
Normalized gene expression, CREB3L1 [1]: 3.86 and 3.657 and 3.39
Normalized gene expression, CREB3L3 [1]: 2.723 and 2.891 and 2.943
Normalized gene expression, CREB3L4 [1]: 7.001 and 6.678 and 6.702
Normalized gene expression, CRLF2 [1]: 5.723 and 5.798 and 5.75
Normalized gene expression, CXXC4 [1]: 6.156 and 6.2133 and 5.858
Normalized gene expression, DTX3 [1]: 3.986 and 4.2133 and 4.238
Normalized gene expression, FAAP24 [1]: 7.343 and 7.012 and 7.17
Normalized gene expression, FBXW7 [1]: 6.571 and 6.488 and 6.528
Normalized gene expression, GDF6 [1]: 4.101 and 4.657 and 4.0068
Normalized gene expression, GNG12 [1]: 4.793 and 4.855 and 4.693
Normalized gene expression, H3F3C [1]: 12.4579 and 12.5235 and 12.4804
Normalized gene expression, HDAC10 [1]: 8.066 and 7.808 and 7.722
Normalized gene expression, HDAC11 [1]: 5.156 and 4.927 and 5.291
Normalized gene expression, HES5 [1]: 6.355 and 5.657 and 5.893
Normalized gene expression, HHIP [1]: 3.986 and 3.739 and 3.653
Normalized gene expression, IL22RA1 [1]: 5.156 and 5.0613 and 5.316
Normalized gene expression, IL22RA2 [1]: 5.445 and 4.817 and 4.437
Normalized gene expression, IL23R [1]: 4.986 and 4.614 and 4.291
Normalized gene expression, KMT2C [1]: 9.426 and 9.461 and 9.455
Normalized gene expression, LAMA1 [1]: 4.986 and 4.27 and 4.184
Normalized gene expression, MAML2 [1]: 8.948 and 9.039 and 8.92
Normalized gene expression, NFKBIZ [1]: 7.259 and 6.9093 and 6.832
Normalized gene expression, NKD1 [1]: 5.445 and 5.3768 and 5.437
Normalized gene expression, NSD1 [1]: 7.758 and 7.832 and 7.75
Normalized gene expression, PAK7 [1]: 2.986 and 3.891 and 3.39
Normalized gene expression, PDGFC [1]: 6.509 and 6.415 and 6.1271
Normalized gene expression, PDGFD [1]: 4.401 and 4.27 and 4.0068
Normalized gene expression, PHF6 [1]: 9.829 and 9.914 and 9.8
Normalized gene expression, PLA2G4E [1]: 3.86 and 4.029 and 4.0682
Normalized gene expression, PLA2G4F [1]: 4.208 and 4.154 and 3.483
Normalized gene expression, POLD4 [1]: 8.314 and 8.1355 and 8.194
Normalized gene expression, PRMT8 [1]: 4.308 and 4.476 and 4.341
Normalized gene expression, PTCRA [1]: 3.986 and 4.3768 and 4.238
Normalized gene expression, PTPN5 [1]: 4.571 and 4.476 and 4.39
Normalized gene expression, SHC4 [1]: 5.571 and 4.891 and 5.0068
Normalized gene expression, SOX17 [1]: 4.101 and 4.154 and 3.483
Normalized gene expression, SPRY4 [1]: 5.044 and 5.093 and 5.366
Normalized gene expression, SUV39H2 [1]: 8.912 and 8.7789 and 8.832
Normalized gene expression, TBL1XR1 [1]: 13.2408 and 13.1822 and 13.1378
Normalized gene expression, TCF7L1 [1]: 5.101 and 4.739 and 5.461
Normalized gene expression, THEM4 [1]: 7.581 and 7.249 and 7.3536
Normalized gene expression, TNN [1]: 4.986 and 4.7789 and 4.39
Normalized gene expression, TRAF7 [1]: 10.2015 and 10.0643 and 10.0175
Normalized gene expression, TSLP [1]: 4.571 and 4.699 and 4.769
Normalized gene expression, WNT5B [1]: 5.208 and 5.093 and 5.238
Normalized gene expression, WNT10A [1]: 5.924 and 6.045 and 6.17
